Data on 7 compounds can be found in US20240376144A9, “NEUROACTIVE STEROIDS S[…] POSITION 10 WITH A CYCLIC GROUP FOR USE IN THE TREATMENT OF CNS DISORDERS” (Sage Therapeutics, Inc., priority 2018, published 2024).

Bounds are passed on as bounds.

The target in the assay is GABAA receptor ([35S]-TBPS binding, rat brain cortical membranes). Nature of the assay: Steroid inhibition of [35S]-TBPS binding. As to conditions: 3 nM [35S]-TBPS, in the presence of 5 mM GABA. The procedure:
[^35S]-t-Butylbicyclophosphorothionate (TBPS) binding assays using rat brain cortical membranes in the presence of 5 mM GABA has been described (Gee et al., J. Pharmacol. Exp. Ther. 1987, 241, 346-353; Hawkinson et al., Mol. Pharmacol. 1994, 46, 977-985; Lewin, A. H et al., Mol. Pharmacol. 1989, 35, 189-194).
Briefly, cortices are rapidly removed following decapitation of carbon dioxide-anesthetized Sprague-Dawley rats (200-250 g). The cortices are homogenized in 10 volumes of ice-cold 0.32 M sucrose using a glass/teflon homogenizer and centrifuged at 1500×g for 10 min at 4° C. The resultant supernatants are centrifuged at 10,000×g for 20 min at 4° C. to obtain the P2 pellets. The P2 pellets are resuspended in 200 mM NaCl/50 mM Na—K phosphate pH 7.4 buffer and centrifuged at 10,000×g for 10 min at 4° C. This washing procedure is repeated twice and the pellets are resuspended in 10 volumes of buffer. Aliquots ([…]) of the membrane suspensions are incubated with 3 nM [^35S]-TBPS and […] aliquots of test drug dissolved in dimethyl sulfoxide (DMSO) (final 0.5%) in the presence of 5 mM GABA. The incubation is brought to a final volume of 1.0 mL with buffer. Nonspecific binding is determined in the presence of […] and ranged from 15 to 25%. Following a 90 min incubation at room temp, the assays are terminated by filtration through glass fiber filters (Schleicher and Schuell No. 32) using a cell harvester (Brandel) and rinsed three times with ice-cold buffer. Filter bound radioactivity is measured by liquid scintillation spectrometry. Non-linear curve fitting of the overall data for each drug averaged for each concentration is done using Prism (GraphPad). […] The concentration of test compound producing 50% inhibition (IC50) of specific binding and the maximal extent of inhibition (Imax) are determined for the individual experiments with the same model used for the overall data and then the means±SEM.s of the individual experiments are calculated.
Various compounds are or can be screened to determine their potential as modulators of [^35S]-TBPS binding in vitro. These assays are or can be performed in accordance with the above
In Table 2 below, A indicates a TBPS IC50 (μM)<0.1 μM, B indicates a TBPS IC50 (μM) of 0.1 μM to <1.0 μM, C indicates a TBPS IC50 (μM) of 1 μM to <10.0 μM, D means≥10 μM.
On to `CCOC[C@@]1(O)CC[C@@]2(C3CC3)[C@H](CC[C@H]3[C@@H]4CC[C@H](C(C)=O)[C@@]4(C)CC[C@@H]32)C1` [Compound 4.12, 1-((3R,5R,8S,9S,10R,13S,14S,17S)-10-cyclopropyl-3-(ethoxymethyl)-3-hydroxy-13-methylhexadecahydro-1H-cyclopenta[a]phenanthren-17-yl)ethan-1-one], for which the IC50 is less than 100 nM.
The same measure for `CCOC[C@@]1(O)CC[C@@]2(C3CC3)[C@H](CC[C@H]3[C@@H]4CC[C@H](C(=O)Cn5cc(C#N)cn5)[C@@]4(C)CC[C@@H]32)C1` [Compound 5.2, 1-(2-((3R,5R,8S,9S,10R,13S,14S,17S)-10-cyclopropyl-3-(ethoxymethyl)-3-hydroxy-13-methylhexadecahydro-1H-cyclopenta[a]phenanthren-17-yl)-2-oxoethyl)-1H-pyrazole-4-carbonitrile]: less than 100 nM.
As for `CCOC[C@@]1(O)CC[C@@]2(C3CC3)[C@H](CC[C@H]3[C@@H]4CC[C@H](C(=O)Cn5ccc(C#N)n5)[C@@]4(C)CC[C@@H]32)C1` [Compound 6, 1-(2-((3R,5R,8S,9S,10R,13S,14S,17S)-10-cyclopropyl-3-(ethoxymethyl)-3-hydroxy-13-methylhexadecahydro-1H-cyclopenta[a]phenanthren-17-yl)-2-oxoethyl)-1H-pyrazole-3-carbonitrile], the figure is less than 100 nM; as for `COC[C@@]1(O)CC[C@@]2(C3CC3)[C@H](CC[C@H]3[C@@H]4CC[C@H](C(C)=O)[C@@]4(C)CC[C@@H]32)C1` [Compound 7.4, 1-((3R,5R,8S,9S,10R,13S,14S,17S)-10-cyclopropyl-3-hydroxy-3-(methoxymethyl)-13-methylhexadecahydro-1H-cyclopenta[a]phenanthren-17-yl)ethan-1-one], less than 100 nM.
The same measure for `COC[C@@]1(O)CC[C@@]2(C3CC3)[C@H](CC[C@H]3[C@@H]4CC[C@H](C(=O)Cn5cc(C#N)cn5)[C@@]4(C)CC[C@@H]32)C1` [Compound 8.2b, 1-(2-((3R,5R,8S,9S,10R,13S,14S,17S)-10-cyclopropyl-3-hydroxy-3-(methoxymethyl)-13-methylhexadecahydro-1H-cyclopenta[a]phenanthren-17-yl)-2-oxoethyl)-1H-pyrazole-4-carbonitrile]: less than 100 nM.
In the case of `CC(=O)[C@H]1CC[C@H]2[C@@H]3CC[C@@H]4C[C@](C)(O)CC[C@]4(C4CC4)[C@H]3CC[C@]12C` [Compound A9, 1-((3R,5R,8S,9S,10R,13S,14S,17S)-10-cyclopropyl-3-hydroxy-3,13-dimethylhexadecahydro-1H-cyclopenta[a]phenanthren-17-yl)ethan-1-one], the IC50 was less than 100 nM.
As for `C[C@@]1(O)CC[C@@]2(C3CC3)[C@H](CC[C@H]3[C@@H]4CC[C@H](C(=O)Cn5cc(C#N)cn5)[C@@]4(C)CC[C@@H]32)C1` [Compound A11, 1-(2-((3R,5R,8S,9S,10R,13S,14S,17S)-10-cyclopropyl-3-hydroxy-3,13-dimethylhexadecahydro-1H-cyclopenta[a]phenanthren-17-yl)-2-oxoethyl)-1H-pyrazole-4-carbonitrile], the figure is less than 100 nM.

Broadly, the IC50 is the concentration needed to halve the response being measured.
